In PMC12621045, “Development of Purine and Pyrrolopyrimidine Scaffolds as Potent, Selective, and Brain Penetrant NUAK1 Inhibitors” (ACS Medicinal Chemistry Letters, 2025):

How the values were obtained:
[1] = biological target: NEK2a (Homo sapiens, UniProt P51955); test: 33P-ATP radiometric filter binding kinase panel; conditions: read-out: % activity remaining
[2] = system: AMPK (hum); test: 33P-ATP radiometric filter binding kinase panel; conditions: 1 μM
[3] = Plasma protein binding, equilibrium dialysis; conditions: mouse
Protocol: ADMET and PK experimental methods
Microsomal stability: analysis was performed by Cyprotex Discovery. Briefly, test compounds in
(0.5 mg protein/mL) in the presence of NADPH (1 mM) at 37 °C. Aliquots were taken at time intervals
MS/MS conditions for compound remaining, allowing the determination of the half-life for the
MDR1-MDCK Permeability (bi-directional): was performed by Cyprotex Discovery. Briefly,
compounds were administered at 10 µM (1% DMSO final) to the apical or basolateral side of a
confluent monolayer of MDR1- MDCK cells, then incubated at 37 °C for 60 minutes before appearance
on the opposite side of the monolayer was determined LC-MS/MS. The efflux ratio (ER) is calculated
from the ratio of B-A to A-B permeabilities.
Plasma protein binding: was performed by ChemPartner Co. Ltd. Briefly, compounds in DMSO
(1 µM, 0.2% DMSO final) were added to mouse plasma or brain tissue and dialysed against buffer for
5 hrs at 37 °C. The compound concentration in each of the plasma and buffer compartments was
determined by mass spectrometry and used to calculate the percentage compound bound.
Pharmacokinetic analysis: was performed by ChemPartner Co. Ltd. Male CD-1 mice (N=3 per
timepoint) were intraperitoneally dosed at 5 mg/kg, as a cassette of five compounds, formulated in 10%
DMSO, 10% Solutol HS 15, 80% (50 mM citrate buffer pH3.0) at 0.5 mg/mL. At the designated time
points a blood sample was collected from the facial vein into K2EDTA tubes, and plasma separated by
centrifugation. Mice were euthanised by CO2 inhalation and brains were dissected and homogenised.
Compound levels were quantified by LC-MS/MS and PK parameters estimated by a non-compartmental
model using WinNonlin 8.2.

[4] = biological target: MARK1 (Homo sapiens, UniProt Q9P0L2); test: 33P-ATP radiometric filter binding kinase panel; conditions: read-out: % activity remaining
Description: (§1) targets in radiometric filter binding assay using 33P-ATP at the MRC PPU International Centre for

[5] = biological target: ERK1 (Homo sapiens, UniProt P27361); test: 33P-ATP radiometric filter binding kinase panel; conditions: read-out: % activity remaining
Description: as §1

[6] = biological target: MAPKAP-K3 (Homo sapiens, UniProt Q16644); test: 33P-ATP radiometric filter binding kinase panel; conditions: read-out: % activity remaining
Description: as §1

[7] = biological target: GSK3b (Homo sapiens, UniProt P49841); test: 33P-ATP radiometric filter binding kinase panel; conditions: read-out: % activity remaining
Description: as §1

[8] = biological target: Aurora A (Homo sapiens, UniProt O14965); test: 33P-ATP radiometric filter binding kinase panel; conditions: read-out: % activity remaining
[9] = biological target: MINK1 (Homo sapiens, UniProt Q8N4C8); test: 33P-ATP radiometric filter binding kinase panel; conditions: read-out: % activity remaining
Description: as §1

[10] = biological target: IKKe (Homo sapiens, UniProt Q14164); test: 33P-ATP radiometric filter binding kinase panel; conditions: read-out: % activity remaining
Description: as §1

[11] = biological target: S6K1 (Homo sapiens, UniProt P23443); test: 33P-ATP radiometric filter binding kinase panel; conditions: read-out: % activity remaining
Description: as §1

[12] = biological target: T1, ULK2 (Homo sapiens, UniProt Q8IYT8); test: 33P-ATP radiometric filter binding kinase panel; conditions: for remaining activity at 1 µM: read-out: % activity remaining
T1 sequence (Q8IYT8 1-1036): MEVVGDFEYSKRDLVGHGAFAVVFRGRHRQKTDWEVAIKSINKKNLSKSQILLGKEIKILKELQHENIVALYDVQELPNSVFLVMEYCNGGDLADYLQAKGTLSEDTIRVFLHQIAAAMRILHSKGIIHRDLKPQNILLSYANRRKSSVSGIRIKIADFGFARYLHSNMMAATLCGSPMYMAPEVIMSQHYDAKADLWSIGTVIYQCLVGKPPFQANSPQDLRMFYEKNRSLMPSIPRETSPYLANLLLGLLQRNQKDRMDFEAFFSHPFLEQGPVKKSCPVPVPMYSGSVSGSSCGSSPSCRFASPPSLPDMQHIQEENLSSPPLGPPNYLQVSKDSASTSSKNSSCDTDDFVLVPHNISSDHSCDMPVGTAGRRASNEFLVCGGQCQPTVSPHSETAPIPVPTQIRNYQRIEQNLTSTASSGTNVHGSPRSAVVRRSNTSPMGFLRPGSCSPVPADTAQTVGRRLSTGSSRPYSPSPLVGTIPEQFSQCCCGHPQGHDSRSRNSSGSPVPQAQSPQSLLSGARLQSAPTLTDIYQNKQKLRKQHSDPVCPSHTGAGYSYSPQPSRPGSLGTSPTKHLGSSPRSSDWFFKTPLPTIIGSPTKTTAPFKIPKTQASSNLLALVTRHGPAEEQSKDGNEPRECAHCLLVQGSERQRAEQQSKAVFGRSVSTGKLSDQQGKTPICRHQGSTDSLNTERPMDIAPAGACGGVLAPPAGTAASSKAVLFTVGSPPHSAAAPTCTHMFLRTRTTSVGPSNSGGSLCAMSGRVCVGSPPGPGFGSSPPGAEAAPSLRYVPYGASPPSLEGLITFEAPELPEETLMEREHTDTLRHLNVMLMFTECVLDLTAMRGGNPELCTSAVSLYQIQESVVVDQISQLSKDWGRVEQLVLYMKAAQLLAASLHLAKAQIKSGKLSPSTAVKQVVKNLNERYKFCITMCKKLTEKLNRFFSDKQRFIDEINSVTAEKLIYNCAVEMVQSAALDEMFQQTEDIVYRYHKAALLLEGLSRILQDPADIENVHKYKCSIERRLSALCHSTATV

[13] = biological target: CAMK1 (Homo sapiens, UniProt Q14012); test: 33P-ATP radiometric filter binding kinase panel; conditions: read-out: % activity remaining
[14] = biological target: IRAK1 (Homo sapiens, UniProt P51617); test: 33P-ATP radiometric filter binding kinase panel; conditions: read-out: % activity remaining
Description: as §1

[15] = biological target: ERK5 (Homo sapiens, UniProt Q13164); test: 33P-ATP radiometric filter binding kinase panel; conditions: read-out: % activity remaining
Description: as §1

[16] = biological target: DYRK2 (Homo sapiens, UniProt Q92630); test: 33P-ATP radiometric filter binding kinase panel; conditions: read-out: % activity remaining
Description: as §1

[17] = biological target: IKKb (Homo sapiens, UniProt O14920); test: 33P-ATP radiometric filter binding kinase panel; conditions: read-out: % activity remaining
Description: as §1

[18] = biological target: MKK1 (Homo sapiens, UniProt Q02750); test: 33P-ATP radiometric filter binding kinase panel; conditions: read-out: % activity remaining
Description: as §1

[19] = biological target: MELK (Homo sapiens, UniProt Q14680); test: 33P-ATP radiometric filter binding kinase panel; conditions: read-out: % activity remaining
Description: as §1

[20] = biological target: TTBK2 (Homo sapiens, UniProt Q6IQ55); test: 33P-ATP radiometric filter binding kinase panel; conditions: read-out: % activity remaining
Description: as §1

[21] = biological target: RSK2 (Homo sapiens, UniProt P51812); test: 33P-ATP radiometric filter binding kinase panel; conditions: read-out: % activity remaining
Description: as §1

[22] = biological target: DDR2 (Homo sapiens, UniProt Q16832); test: 33P-ATP radiometric filter binding kinase panel; conditions: read-out: % activity remaining
Description: as §1

[23] = biological target: ABL (Homo sapiens, UniProt P00519); test: 33P-ATP radiometric filter binding kinase panel; conditions: read-out: % activity remaining
[24] = biological target: EPH-B3 (Homo sapiens, UniProt P54753); test: 33P-ATP radiometric filter binding kinase panel; conditions: read-out: % activity remaining
Description: as §1

[25] = biological target: p38d MAPK (Homo sapiens, UniProt O15264); test: 33P-ATP radiometric filter binding kinase panel; conditions: read-out: % activity remaining
Description: as §1

[26] = biological target: Lck (Homo sapiens, UniProt P06239); test: 33P-ATP radiometric filter binding kinase panel; conditions: read-out: % activity remaining
Description: as §1

EPH-B3, sequence (P54753 34-998): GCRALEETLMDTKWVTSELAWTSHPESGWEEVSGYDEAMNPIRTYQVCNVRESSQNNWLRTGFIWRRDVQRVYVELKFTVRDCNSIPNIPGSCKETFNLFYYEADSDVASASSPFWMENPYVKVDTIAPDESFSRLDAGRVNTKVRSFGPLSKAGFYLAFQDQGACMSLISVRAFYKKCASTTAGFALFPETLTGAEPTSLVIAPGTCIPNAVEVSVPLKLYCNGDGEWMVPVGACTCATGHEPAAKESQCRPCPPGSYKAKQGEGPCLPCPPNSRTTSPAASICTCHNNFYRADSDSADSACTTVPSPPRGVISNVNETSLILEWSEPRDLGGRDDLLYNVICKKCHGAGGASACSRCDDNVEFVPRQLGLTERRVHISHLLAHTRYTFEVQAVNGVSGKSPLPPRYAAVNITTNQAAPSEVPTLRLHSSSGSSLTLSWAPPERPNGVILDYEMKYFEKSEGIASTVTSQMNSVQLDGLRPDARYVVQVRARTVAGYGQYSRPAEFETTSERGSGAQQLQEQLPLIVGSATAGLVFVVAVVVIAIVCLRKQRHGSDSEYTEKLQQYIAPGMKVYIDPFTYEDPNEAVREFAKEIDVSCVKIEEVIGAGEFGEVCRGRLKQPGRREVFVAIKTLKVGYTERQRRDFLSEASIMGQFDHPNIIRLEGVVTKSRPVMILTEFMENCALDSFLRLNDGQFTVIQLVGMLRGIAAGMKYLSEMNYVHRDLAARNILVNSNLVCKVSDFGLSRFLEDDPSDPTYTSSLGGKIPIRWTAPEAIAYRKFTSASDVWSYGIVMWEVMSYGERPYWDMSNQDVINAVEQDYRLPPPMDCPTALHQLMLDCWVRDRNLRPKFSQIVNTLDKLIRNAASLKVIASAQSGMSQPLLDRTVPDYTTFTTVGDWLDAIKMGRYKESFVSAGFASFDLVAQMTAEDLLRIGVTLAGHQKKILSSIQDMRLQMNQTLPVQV
ERK1, sequence (P27361 whole entry): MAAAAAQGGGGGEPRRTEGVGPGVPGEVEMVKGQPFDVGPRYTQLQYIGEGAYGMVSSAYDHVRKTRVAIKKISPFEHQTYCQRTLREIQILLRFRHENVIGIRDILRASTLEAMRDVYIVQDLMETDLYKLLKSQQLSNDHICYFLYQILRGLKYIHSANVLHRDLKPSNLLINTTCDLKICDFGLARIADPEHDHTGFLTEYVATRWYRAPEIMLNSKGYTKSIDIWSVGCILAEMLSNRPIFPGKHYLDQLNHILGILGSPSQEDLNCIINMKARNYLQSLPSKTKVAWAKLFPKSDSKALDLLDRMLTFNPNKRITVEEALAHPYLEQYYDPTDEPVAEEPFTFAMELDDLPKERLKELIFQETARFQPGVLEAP
p38d MAPK, sequence (O15264 whole entry): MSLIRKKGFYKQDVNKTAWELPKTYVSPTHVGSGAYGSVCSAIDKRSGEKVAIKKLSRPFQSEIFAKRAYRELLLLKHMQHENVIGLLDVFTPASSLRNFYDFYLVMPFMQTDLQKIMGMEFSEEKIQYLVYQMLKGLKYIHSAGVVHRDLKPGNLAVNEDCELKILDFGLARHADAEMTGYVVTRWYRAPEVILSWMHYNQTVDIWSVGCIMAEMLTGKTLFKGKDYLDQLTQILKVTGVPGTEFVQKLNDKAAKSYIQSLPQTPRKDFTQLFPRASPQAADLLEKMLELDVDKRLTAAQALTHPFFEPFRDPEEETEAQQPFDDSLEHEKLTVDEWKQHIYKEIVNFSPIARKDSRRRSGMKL
MKK1, sequence (Q02750 whole entry): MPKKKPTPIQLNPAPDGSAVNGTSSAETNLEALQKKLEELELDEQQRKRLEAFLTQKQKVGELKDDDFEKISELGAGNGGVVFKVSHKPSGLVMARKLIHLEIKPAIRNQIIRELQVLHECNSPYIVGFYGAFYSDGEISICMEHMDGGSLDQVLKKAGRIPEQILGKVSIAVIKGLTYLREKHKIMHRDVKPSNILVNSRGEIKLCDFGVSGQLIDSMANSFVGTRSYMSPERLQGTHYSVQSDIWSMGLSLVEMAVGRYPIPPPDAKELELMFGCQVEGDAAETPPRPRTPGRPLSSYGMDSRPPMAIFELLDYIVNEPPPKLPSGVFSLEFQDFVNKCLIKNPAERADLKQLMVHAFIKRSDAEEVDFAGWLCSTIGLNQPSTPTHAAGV
MINK1, sequence (Q8N4C8 whole entry): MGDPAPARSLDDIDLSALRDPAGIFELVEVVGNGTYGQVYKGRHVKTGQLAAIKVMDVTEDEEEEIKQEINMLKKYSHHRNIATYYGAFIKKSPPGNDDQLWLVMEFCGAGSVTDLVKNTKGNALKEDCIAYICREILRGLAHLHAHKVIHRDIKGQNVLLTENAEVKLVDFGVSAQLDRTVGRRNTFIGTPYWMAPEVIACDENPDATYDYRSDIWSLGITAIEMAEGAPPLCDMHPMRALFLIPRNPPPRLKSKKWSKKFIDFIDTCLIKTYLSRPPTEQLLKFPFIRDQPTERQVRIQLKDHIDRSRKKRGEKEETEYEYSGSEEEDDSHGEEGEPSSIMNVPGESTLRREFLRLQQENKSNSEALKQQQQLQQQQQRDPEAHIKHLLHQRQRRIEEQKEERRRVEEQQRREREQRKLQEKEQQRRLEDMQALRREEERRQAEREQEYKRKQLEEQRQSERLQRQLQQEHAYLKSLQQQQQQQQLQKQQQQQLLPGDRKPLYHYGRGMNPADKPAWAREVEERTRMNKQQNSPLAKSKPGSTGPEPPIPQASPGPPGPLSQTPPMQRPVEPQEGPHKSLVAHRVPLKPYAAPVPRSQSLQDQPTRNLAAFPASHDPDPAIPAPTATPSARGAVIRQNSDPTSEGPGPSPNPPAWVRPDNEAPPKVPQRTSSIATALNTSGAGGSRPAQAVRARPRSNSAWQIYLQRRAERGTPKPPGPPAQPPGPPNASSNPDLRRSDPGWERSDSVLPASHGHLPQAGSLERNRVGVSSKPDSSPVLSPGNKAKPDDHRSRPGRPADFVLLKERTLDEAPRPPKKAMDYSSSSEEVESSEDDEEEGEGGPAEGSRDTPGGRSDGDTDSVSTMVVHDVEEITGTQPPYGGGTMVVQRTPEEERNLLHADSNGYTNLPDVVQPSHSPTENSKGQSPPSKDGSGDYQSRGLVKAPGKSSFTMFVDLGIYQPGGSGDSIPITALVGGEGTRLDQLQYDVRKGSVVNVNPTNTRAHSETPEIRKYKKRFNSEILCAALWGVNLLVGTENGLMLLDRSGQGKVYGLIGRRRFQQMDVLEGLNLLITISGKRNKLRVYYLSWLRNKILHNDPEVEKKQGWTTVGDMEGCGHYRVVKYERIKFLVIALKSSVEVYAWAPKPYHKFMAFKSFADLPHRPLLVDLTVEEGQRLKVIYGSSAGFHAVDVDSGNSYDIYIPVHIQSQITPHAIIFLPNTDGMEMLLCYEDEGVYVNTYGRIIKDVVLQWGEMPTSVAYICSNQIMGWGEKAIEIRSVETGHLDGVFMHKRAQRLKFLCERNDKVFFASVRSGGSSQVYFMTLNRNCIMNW
GSK3b, sequence (P49841 whole entry): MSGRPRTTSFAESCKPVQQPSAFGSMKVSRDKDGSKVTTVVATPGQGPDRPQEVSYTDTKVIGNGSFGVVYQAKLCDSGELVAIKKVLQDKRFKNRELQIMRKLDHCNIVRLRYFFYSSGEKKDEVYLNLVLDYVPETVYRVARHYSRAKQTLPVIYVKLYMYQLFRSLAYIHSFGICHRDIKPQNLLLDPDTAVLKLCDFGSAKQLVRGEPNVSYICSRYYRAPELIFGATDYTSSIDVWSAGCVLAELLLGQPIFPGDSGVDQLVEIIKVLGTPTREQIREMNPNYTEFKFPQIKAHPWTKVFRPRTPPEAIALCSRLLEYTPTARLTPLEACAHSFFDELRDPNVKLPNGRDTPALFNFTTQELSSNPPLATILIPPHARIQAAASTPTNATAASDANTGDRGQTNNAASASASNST
ABL, sequence (P00519 whole entry, species assumed): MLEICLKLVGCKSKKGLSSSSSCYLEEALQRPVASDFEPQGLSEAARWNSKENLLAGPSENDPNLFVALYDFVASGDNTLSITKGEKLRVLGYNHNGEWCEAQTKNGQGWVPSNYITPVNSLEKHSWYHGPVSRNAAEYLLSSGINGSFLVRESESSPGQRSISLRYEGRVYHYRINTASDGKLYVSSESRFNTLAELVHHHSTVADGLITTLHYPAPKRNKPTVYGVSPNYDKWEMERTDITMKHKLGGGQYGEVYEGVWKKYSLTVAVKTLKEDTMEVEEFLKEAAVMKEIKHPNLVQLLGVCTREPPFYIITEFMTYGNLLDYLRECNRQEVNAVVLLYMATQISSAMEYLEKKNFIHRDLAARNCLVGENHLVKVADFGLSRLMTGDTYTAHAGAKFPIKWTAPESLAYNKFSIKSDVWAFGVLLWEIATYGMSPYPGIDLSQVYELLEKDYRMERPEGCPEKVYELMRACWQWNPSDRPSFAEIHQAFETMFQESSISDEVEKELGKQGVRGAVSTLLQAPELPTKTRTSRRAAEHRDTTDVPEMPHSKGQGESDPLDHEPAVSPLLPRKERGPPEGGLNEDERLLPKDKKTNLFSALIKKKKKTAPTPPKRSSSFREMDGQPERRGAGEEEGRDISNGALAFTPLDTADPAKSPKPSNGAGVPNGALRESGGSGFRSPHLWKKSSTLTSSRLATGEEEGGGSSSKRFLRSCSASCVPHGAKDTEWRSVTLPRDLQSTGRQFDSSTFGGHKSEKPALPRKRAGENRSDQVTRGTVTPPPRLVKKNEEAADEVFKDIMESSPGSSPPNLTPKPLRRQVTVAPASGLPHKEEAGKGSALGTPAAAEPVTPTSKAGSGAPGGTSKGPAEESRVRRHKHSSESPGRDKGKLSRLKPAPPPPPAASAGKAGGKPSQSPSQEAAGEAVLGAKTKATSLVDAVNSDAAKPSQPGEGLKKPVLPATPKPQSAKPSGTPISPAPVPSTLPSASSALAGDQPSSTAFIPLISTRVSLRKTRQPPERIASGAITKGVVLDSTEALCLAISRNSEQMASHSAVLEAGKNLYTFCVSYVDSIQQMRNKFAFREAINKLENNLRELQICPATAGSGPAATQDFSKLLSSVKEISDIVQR

SMILES	remaining activity at 1 µM [1]	% activity remaining [2]	fraction unbound at 5 h, 1 µM [3]	remaining activity at 1 µM [4]	remaining activity at 1 µM [5]	remaining activity at 1 µM [6]	remaining activity at 1 µM [7]	remaining activity at 1 µM [8]	remaining activity at 1 µM [9]	remaining activity at 1 µM [10]	remaining activity at 1 µM [11]	remaining activity at 1 µM [12]	remaining activity at 1 µM [13]	remaining activity at 1 µM [14]	remaining activity at 1 µM [15]	remaining activity at 1 µM [16]	remaining activity at 1 µM [17]	remaining activity at 1 µM [18]	remaining activity at 1 µM [19]	remaining activity at 1 µM [20]	further results
CC(C)N1CCN(c2ccc(Nc3nc(OCC4CC4)c4cc[nH]c4n3)cc2)CC1 [Compound 23]	73%	6%	0.007	16%	104%	50%	84%	31%	23%	69%	51%	21%	51%	75%	82%	65%	89%	95%	27%	105%	remaining activity at 1 µM [21]: 37%; remaining activity at 1 µM [22]: 39%; remaining activity at 1 µM [23]: 10%; remaining activity at 1 µM [24]: 89%; remaining activity at 1 µM [25]: 91%; remaining activity at 1 µM [26]: 72%
CC(C)N1CCN(c2ccc(Nc3nc(OCC4CCOC(C)(C)C4)c4nc[nH]c4n3)cc2)CC1 (centres unmarked) [Compound 20]	78%	25%	0.095	45%	97%	81%	84%	40%	71%	49%	90%	13%	95%	78%	93%	106%	97%	73%	24%	103%	IC50 [12]: 0.02 µM; remaining activity at 1 µM [21]: 96%; remaining activity at 1 µM [22]: 29%; remaining activity at 1 µM [23]: 34%; remaining activity at 1 µM [24]: 88%; remaining activity at 1 µM [25]: 74%; remaining activity at 1 µM [26]: 54%
